The record followed here is patent publication US5500410A, “Substituted alkylamide derivatives of teicoplanin” (Gruppo Lepetit S.p.A., priority 1989, dated 1996).

Test [1] has as its system Staphylococcus epidermidis ATCC 12228. Put plainly: In vitro MIC, two-fold dilution in microtiter. It is filed as cell-based. The following applies: 18-24 h at 37° C., inoculum about 10^4 CFU/ml. The protocol: (§1) Broth cultures are diluted enough so that the final inecuium is about 10^4 colony forming units/ml (CFU/ml).
The subject of test [2] is Escherichia coli SKF 12140. Put plainly: In vitro MIC, two-fold dilution in microtiter. The format is cell-based. The following applies: 18-24 h at 37° C., inoculum about 10^4 CFU/ml. The protocol:
as §1

Test [3] concerns Staphylococcus haemolyticus L 602. Put plainly: In vitro MIC, two-fold dilution in microtiter. It is filed as cell-based. Particulars: 18-24 h at 37° C., inoculum about 10^4 CFU/ml. The procedure: as §1
Test [4] has as its system Streptococcus pyogenes C 203. Description: In vitro MIC, two-fold dilution in microtiter. The following applies: 18-24 h at 37° C., inoculum about 10^4 CFU/ml. The format is cell-based. The procedure:
as §1

Test [5] concerns Streptococcus pneumoniae UC 41. Put plainly: In vitro MIC, two-fold dilution in microtiter. The format is cell-based. The following applies: 18-24 h at 37° C., inoculum about 10^4 CFU/ml. The procedure: as §1
In test [6] the test system is Proteus vulgaris X19H ATCC 881. Description: In vitro MIC, two-fold dilution in microtiter. It is filed as cell-based. Particulars: 18-24 h at 37° C., inoculum about 10^4 CFU/ml. The procedure:
as §1

The test system of test [7] is Pseudomonas aeruginosa ATCC 10145. Put plainly: In vitro MIC, two-fold dilution in microtiter. The format is cell-based. Particulars: 18-24 h at 37° C., inoculum about 10^4 CFU/ml. The procedure: as §1
Test [8] concerns Staphylococcus aureus TOUR. Put plainly: In vitro MIC, two-fold dilution in microtiter. It is filed as cell-based. Particulars: 18-24 h at 37° C., inoculum about 10^4 CFU/ml. The procedure:
as §1

Test [9] deals with Streptococcus faecalis ATCC 7080. Description: In vitro MIC, two-fold dilution in microtiter. The format is cell-based. The following applies: 18-24 h at 37° C., inoculum about 10^4 CFU/ml. The protocol: as §1
Test [10] deals with Pseudomonas aeruginosa Strain No. L 1498. Put plainly: MIC against multi-resistant clinical isolates of Pseudomonas aeruginosa. It is filed as cell-based. Particulars: multi-resistant clinical isolate. The procedure:
as §1
(§2) The activity against some multi-resistant clinical isolates of Pseudomonas aeruginosa of compounds 22, 23, 25, 26, 27 and 29 is shown in Table II.

In test [11] the test system is Pseudomonas aeruginosa Strain No. L 1138. Described as above. The format is cell-based. The following applies: multi-resistant clinical isolate. The protocol: as §1, §2
Test [12] deals with Pseudomonas aeruginosa Strain No. L 1533. The description is as above. The format is cell-based. The following applies: multi-resistant clinical isolate. The protocol: as §1, §2
Test [13] deals with Pseudomonas aeruginosa Strain No. L 1348. Described as above. The format is cell-based. Particulars: multi-resistant clinical isolate. The procedure:
as §1, §2

In the next test the test system is Strep. pyogenes C 203. Description: In vivo test in mice septicemically infected with Strep. pyogenes C 203. The following applies: Strep. pyogenes C 203 septicemia. The text has this: The ED50 values (mg/kg) of representative compounds of the invention in in vivo tests in mice septicemically infected with Strep. pyogenes. C 203, obtained according to the procedure described by V. Arioli et al. (Journal of Antibiotics 29, 511; 1976) are given in table III.

Consider `NCCCNCCCCNCCCNC(=O)C1NC(=O)C2NC(=O)C(NC(=O)C3NC(=O)C4NC(=O)C(Cc5ccc(c(Cl)c5)Oc5cc3cc(c5O)Oc3ccc(cc3Cl)C2O)NC(=O)C(N)c2ccc(O)c(c2)Oc2cc(O)cc4c2)c2ccc(O)c(c2)-c2c(O)cc(O)cc21` (stereo not shown) [Compound 27], for which the “MIC Staphylococcus epidermidis ATCC 12228” value in [1] was determined as 0.06 microgram/ml. Besides, the “MIC Escherichia coli SKF 12140” value in [2] came to 2 microgram/ml. For the same compound, the “MIC Staphylococcus haemolyticus L 602” value in [3] stood at 0.12 microgram/ml. Moreover, the “MIC Streptococcus pyogenes C 203” value in test [4] is reported as 0.06 microgram/ml. In test [5], the “MIC Streptococcus pneumoniae UC 41” value amounted to 0.12 microgram/ml. Besides, in test [6], the “MIC Proteus vulgaris X19H ATCC 881” value is listed as 64 microgram/ml. The “MIC Pseudomonas aeruginosa ATCC 10145” value in test [7] is listed as 8 microgram/ml. Moreover, the “MIC Staphylococcus aureus TOUR” value in test [8] worked out at 0.06 microgram/ml. The “MIC Streptococcus faecalis ATCC 7080” value in test [9] is 0.12 microgram/ml. In addition, the “MIC Pseudomonas aeruginosa L 1498” value in [10] worked out at 64 microgram/ml. For the same compound, the “MIC Pseudomonas aeruginosa L 1138” value in test [11] was determined as 64 microgram/ml. Moreover, the “MIC Pseudomonas aeruginosa L 1533” value in [12] was found to be 64 microgram/ml. The “MIC Pseudomonas aeruginosa L 1348” value in [13] amounted to 4 microgram/ml.

With `NCCCNCCCNCCCNC(=O)C1NC(=O)C2NC(=O)C(NC(=O)C3NC(=O)C4NC(=O)C(Cc5ccc(c(Cl)c5)Oc5cc3cc(c5O)Oc3ccc(cc3Cl)C2O)NC(=O)C(N)c2ccc(O)c(c2)Oc2cc(O)cc4c2)c2ccc(O)c(c2)-c2c(O)cc(O)cc21` (stereo not shown) [Compound 26], the “MIC Staphylococcus epidermidis ATCC 12228” value in [1] worked out at 0.016 microgram/ml. The “MIC Escherichia coli SKF 12140” value in test [2] is on record as 0.5 microgram/ml. Further, the “MIC Staphylococcus haemolyticus L 602” value in [3] stood at 0.06 microgram/ml. Further, the “MIC Streptococcus pyogenes C 203” value in test [4] is 0.06 microgram/ml. Further, the “MIC Streptococcus pneumoniae UC 41” value in test [5] is 0.12 microgram/ml. Also, the “MIC Proteus vulgaris X19H ATCC 881” value in test [6] stood at 64 microgram/ml. For the same compound, the “MIC Pseudomonas aeruginosa ATCC 10145” value in [7] is 2 microgram/ml. In [8], the “MIC Staphylococcus aureus TOUR” value is 0.06 microgram/ml. In addition, the “MIC Streptococcus faecalis ATCC 7080” value in test [9] is recorded as 0.25 microgram/ml. For the same compound, in test [10], the “MIC Pseudomonas aeruginosa L 1498” value was 64 microgram/ml. Besides, in test [11], the “MIC Pseudomonas aeruginosa L 1138” value came out at 32 microgram/ml. The “MIC Pseudomonas aeruginosa L 1533” value in test [12] amounted to 64 microgram/ml. In addition, the “MIC Pseudomonas aeruginosa L 1348” value in test [13] is given as 4 microgram/ml.

With `NCCCNCCCNC(=O)C1NC(=O)C2NC(=O)C(NC(=O)C3NC(=O)C4NC(=O)C(Cc5ccc(c(Cl)c5)Oc5cc3cc(c5O)Oc3ccc(cc3Cl)C2O)NC(=O)C(N)c2ccc(O)c(c2)Oc2cc(O)cc4c2)c2ccc(O)c(c2)-c2c(O)cc(O)cc21` (stereo not shown) [Compound 22], the “MIC Staphylococcus epidermidis ATCC 12228” value in [1] is given as 0.03 microgram/ml. For the same compound, in test [2], the “MIC Escherichia coli SKF 12140” value was 1 microgram/ml. For the same compound, in test [3], the “MIC Staphylococcus haemolyticus L 602” value is 0.12 microgram/ml. In addition, the “MIC Streptococcus pyogenes C 203” value in test [4] turned out to be 0.12 microgram/ml. For the same compound, in test [5], the “MIC Streptococcus pneumoniae UC 41” value is given as 0.12 microgram/ml. For the same compound, in test [6], the “MIC Proteus vulgaris X19H ATCC 881” value was 32 microgram/ml. The “MIC Pseudomonas aeruginosa ATCC 10145” value in [7] worked out at 8 microgram/ml. Also, the “MIC Staphylococcus aureus TOUR” value in test [8] amounted to 0.06 microgram/ml. Further, the “MIC Streptococcus faecalis ATCC 7080” value in test [9] is on record as 0.12 microgram/ml. Moreover, the “MIC Pseudomonas aeruginosa L 1498” value in [10] is listed as 64 microgram/ml. Besides, the “MIC Pseudomonas aeruginosa L 1138” value in test [11] is listed as 64 microgram/ml. In [12], the “MIC Pseudomonas aeruginosa L 1533” value amounted to 64 microgram/ml. The “MIC Pseudomonas aeruginosa L 1348” value in test [13] is recorded as 4 microgram/ml.

Consider `NCCN(CCN)CCNC(=O)C1NC(=O)C2NC(=O)C(NC(=O)C3NC(=O)C4NC(=O)C(Cc5ccc(c(Cl)c5)Oc5cc3cc(c5O)Oc3ccc(cc3Cl)C2O)NC(=O)C(N)c2ccc(O)c(c2)Oc2cc(O)cc4c2)c2ccc(O)c(c2)-c2c(O)cc(O)cc21` (stereo not shown) [Compound 29], for which the “MIC Staphylococcus epidermidis ATCC 12228” value in [1] is recorded as 0.016 microgram/ml. Moreover, in test [2], the “MIC Escherichia coli SKF 12140” value is given as 1 microgram/ml. In addition, the “MIC Staphylococcus haemolyticus L 602” value in test [3] was 0.06 microgram/ml. The “MIC Streptococcus pyogenes C 203” value in [4] is recorded as 0.06 microgram/ml. Further, the “MIC Streptococcus pneumoniae UC 41” value in [5] amounted to 0.12 microgram/ml. Besides, the “MIC Proteus vulgaris X19H ATCC 881” value in test [6] is listed as 32 microgram/ml. In addition, the “MIC Pseudomonas aeruginosa ATCC 10145” value in test [7] turned out to be 8 microgram/ml. Besides, the “MIC Staphylococcus aureus TOUR” value in test [8] stood at 0.06 microgram/ml. The “MIC Streptococcus faecalis ATCC 7080” value in [9] is 0.12 microgram/ml. Besides, the “MIC Pseudomonas aeruginosa L 1498” value in test [10] was 64 microgram/ml. In addition, the “MIC Pseudomonas aeruginosa L 1138” value in test [11] is recorded as 64 microgram/ml. Also, the “MIC Pseudomonas aeruginosa L 1533” value in [12] was 128 microgram/ml. Also, the “MIC Pseudomonas aeruginosa L 1348” value in test [13] was 8 microgram/ml.

On to `CC(=O)N[C@H]1[C@H](OC2c3ccc(c(Cl)c3)Oc3cc4cc(c3O[C@@H]3O[C@H](CO)[C@@H](O)[C@H](O)[C@H]3NC(=O)CCCCCCC(C)C)Oc3ccc(cc3Cl)CC3NC(=O)C(N)c5ccc(O)c(c5)Oc5cc(O)cc(c5)C(NC3=O)C(=O)NC4C(=O)NC3C(=O)NC2C(=O)NC(C(=O)NCCNCCN)c2cc(O)cc(O[C@H]4O[C@H](CO)[C@@H](O)[C@H](O)[C@@H]4O)c2-c2cc3ccc2O)O[C@H](CO)[C@@H](O)[C@@H]1O` (stereo partly shown) [Compound 2], for which, in the test on Strep. pyogenes C 203, the ED50 p.o. result was “about 60 mg/kg” and the ED50 s.c. stood at 0.09 mg/kg.

In the test with Strep. pyogenes C 203, `CC(=O)NC1C(OC2c3ccc(c(Cl)c3)Oc3cc4cc(c3OC3OC(CO)C(O)C(O)C3NC(=O)CCCCCCC(C)C)Oc3ccc(cc3Cl)CC3NC(=O)C(N)c5ccc(O)c(c5)Oc5cc(O)cc(c5)C(NC3=O)C(=O)NC4C(=O)NC3C(=O)NC2C(=O)NC(C(=O)NCCCNCCCCNCCCN)c2cc(O)cc(OC4OC(CO)C(O)C(O)C4O)c2-c2cc3ccc2O)OC(CO)C(O)C1O` (stereo not shown) [Compound 11] gave an ED50 p.o. of 81.2 mg/kg and an ED50 s.c. of 0.03 mg/kg. Besides, in [1], the “MIC Staphylococcus epidermidis ATCC 12228” value came to 0.06 microgram/ml. Further, in test [2], the “MIC Escherichia coli SKF 12140” value was found to be 64 microgram/ml. Moreover, in [3], the “MIC Staphylococcus haemolyticus L 602” value is 0.12 microgram/ml. Further, the “MIC Streptococcus pyogenes C 203” value in test [4] amounted to 0.06 microgram/ml. Moreover, in test [5], the “MIC Streptococcus pneumoniae UC 41” value was 0.12 microgram/ml. In [6], the “MIC Proteus vulgaris X19H ATCC 881” value is 128 microgram/ml. In addition, the “MIC Pseudomonas aeruginosa ATCC 10145” value in test [7] worked out at 32 microgram/ml. In addition, the “MIC Staphylococcus aureus TOUR” value in [8] came out at 0.12 microgram/ml. Further, the “MIC Streptococcus faecalis ATCC 7080” value in test [9] is on record as 0.12 microgram/ml.

On to `CC(=O)NC1C(OC2c3ccc(c(Cl)c3)Oc3cc4cc(c3OC3OC(CO)C(O)C(O)C3NC(=O)CCCCCCC(C)C)Oc3ccc(cc3Cl)CC3NC(=O)C(N)c5ccc(O)c(c5)Oc5cc(O)cc(c5)C(NC3=O)C(=O)NC4C(=O)NC3C(=O)NC2C(=O)NC(C(=O)NCCCNCCCNCCCN)c2cc(O)cc(OC4OC(CO)C(O)C(O)C4O)c2-c2cc3ccc2O)OC(CO)C(O)C1O` (stereo not shown) [Compound 9], for which, in the test on Strep. pyogenes C 203, the ED50 p.o. entry is reported as “about 80 mg/kg” and the ED50 s.c. is 0.06 mg/kg. For the same compound, the “MIC Staphylococcus epidermidis ATCC 12228” value in test [1] was found to be 0.06 microgram/ml. Further, in test [2], the “MIC Escherichia coli SKF 12140” value is greater than 128 microgram/ml. Besides, the “MIC Staphylococcus haemolyticus L 602” value in test [3] was 0.12 microgram/ml. Also, in test [4], the “MIC Streptococcus pyogenes C 203” value came to 0.06 microgram/ml. The “MIC Streptococcus pneumoniae UC 41” value in test [5] amounted to 0.12 microgram/ml. Moreover, the “MIC Proteus vulgaris X19H ATCC 881” value in test [6] is given as greater than 128 microgram/ml. Besides, the “MIC Pseudomonas aeruginosa ATCC 10145” value in test [7] worked out at 64 microgram/ml. The “MIC Staphylococcus aureus TOUR” value in [8] turned out to be 0.12 microgram/ml. The “MIC Streptococcus faecalis ATCC 7080” value in test [9] was 0.12 microgram/ml.
